The text below walks through data of patent US20240075093A1, “COMPOSITIONS AND METHODS OF TREATING A PI3K MEDIATED DISEASE” (VIRGINIA TECH INTELLECTUAL PROPERTIES, INC., priority 2020, published 2024).

One test concerns U87MG cells. The test can be described thus: MTS cell viability assay. The format is cell-based, human. The following applies: 20 uM TGX-221 and 50 uM TMZ, 4 days, MTS. As to the method:
Cell viability was measured by the MTS assay. P values were determined using the student t test or one-way ANOVA. Error bars represent three independent experiments.
Cell viability was determined using the MTS viability assay. The vehicle DMSO was the control and set as 100%. Treated cells were normalized to DMSO-treated cells. […] (FIG. 43D) Scores of Excess Over Bliss in FIG. 43C calculated using the Bliss Independence model. One-way ANOVA and student t test were used to determine statistical significance.
Cell viability was determined by the MTS cell viability assay (Promega) as described previously 21,24-27. In brief, 250 to 1,000 cells were plated in the wells of a 96-well plate-based upon the cell growth rate. Because the drug treatment usually takes 6-7 days, fast-growing cells could be over-grown if plated at a high cell density. For αCT1 treatment experiments, Applicant intended to plate cells at a low density to minimize the formation of gap junctions, and thus, more Cx43-hemichannels can be present. […] At each hour time point, the absorbance at 490 nm was measured using a FilterMax F3 microplate reader (Molecular Devices, LLC) according to the manufacturer's instructions. Percent cell viability was obtained by dividing the absorbance of treatment groups to those of untreated and respective vehicle control groups.

For another test, the target named is p110b (Homo sapiens, UniProt P42338). Kind of test: p110b activity ELISA (cell-free kinase assay). The format is biochemical. From the text:
The activity of the p110b PI3K catalytic subunit was monitored via ELISA upon increasing doses of Ante-Selectide-18.
Relative activity is the ratio of respective treated groups to their non-treated controls.
(FIG. 51A) 3D of a p110β/p85α complex determined by SWISS-MODEL and Cluspro. (FIG. 51B) Protein sequences were aligned using COBALT. C2 domains (top) are show. Red bars: same residues; Grey bars: different residues; Red lines: missing residues. […] in p110β C2 (bottom) is shown and termed as 018. Docking of p110β and p85α (FIG. 51C) or p110α and p85α (FIG. 51D) was done by SWISS-MODEL, Cluspro, and Chimera. The 018 motif is labeled in magenta. Deletion of β18 motif (FIG. 51E) changed the 3D shapes of p110β/p85 (FIG. 51C). (FIG. 51F) p110β cell-free kinase assay. An enzyme-linked immunosorbent assay (ELISA) was used to measure levels of lipids PIP2/PIP3. (FIG. 51G) Effect of PI3K inhibitors on p110s using ELISA. p110β (FIG. 51H) or p110α (FIG. 51I) was docked with Selectide-18-bound p85α using Cluspro/Chimera.
Applicant also included a control scramble peptide containing the antennapedia sequence followed by the amino acid sequence of Ante-Selectide-18 randomly scrambled. […] Applicant reports that this drug is not effective at inhibiting the kinase activity of p110b or other PI3K subunits at 100 nM, showing the promise of the Ante-Selectide-18 peptide as a potent selective p110b inhibitor at a low dose.

For test [1], the system named is PI3K/AKT signaling in SF295 cells. The test can be described thus: immunoblotting of PI3K/AKT signaling in SF295 cells. The format is cell-based. For orientation: Immunoblotting shows a protein as a band on a membrane.

Each structure is given as a SMILES string.

Chain of p110b (P42338 whole entry): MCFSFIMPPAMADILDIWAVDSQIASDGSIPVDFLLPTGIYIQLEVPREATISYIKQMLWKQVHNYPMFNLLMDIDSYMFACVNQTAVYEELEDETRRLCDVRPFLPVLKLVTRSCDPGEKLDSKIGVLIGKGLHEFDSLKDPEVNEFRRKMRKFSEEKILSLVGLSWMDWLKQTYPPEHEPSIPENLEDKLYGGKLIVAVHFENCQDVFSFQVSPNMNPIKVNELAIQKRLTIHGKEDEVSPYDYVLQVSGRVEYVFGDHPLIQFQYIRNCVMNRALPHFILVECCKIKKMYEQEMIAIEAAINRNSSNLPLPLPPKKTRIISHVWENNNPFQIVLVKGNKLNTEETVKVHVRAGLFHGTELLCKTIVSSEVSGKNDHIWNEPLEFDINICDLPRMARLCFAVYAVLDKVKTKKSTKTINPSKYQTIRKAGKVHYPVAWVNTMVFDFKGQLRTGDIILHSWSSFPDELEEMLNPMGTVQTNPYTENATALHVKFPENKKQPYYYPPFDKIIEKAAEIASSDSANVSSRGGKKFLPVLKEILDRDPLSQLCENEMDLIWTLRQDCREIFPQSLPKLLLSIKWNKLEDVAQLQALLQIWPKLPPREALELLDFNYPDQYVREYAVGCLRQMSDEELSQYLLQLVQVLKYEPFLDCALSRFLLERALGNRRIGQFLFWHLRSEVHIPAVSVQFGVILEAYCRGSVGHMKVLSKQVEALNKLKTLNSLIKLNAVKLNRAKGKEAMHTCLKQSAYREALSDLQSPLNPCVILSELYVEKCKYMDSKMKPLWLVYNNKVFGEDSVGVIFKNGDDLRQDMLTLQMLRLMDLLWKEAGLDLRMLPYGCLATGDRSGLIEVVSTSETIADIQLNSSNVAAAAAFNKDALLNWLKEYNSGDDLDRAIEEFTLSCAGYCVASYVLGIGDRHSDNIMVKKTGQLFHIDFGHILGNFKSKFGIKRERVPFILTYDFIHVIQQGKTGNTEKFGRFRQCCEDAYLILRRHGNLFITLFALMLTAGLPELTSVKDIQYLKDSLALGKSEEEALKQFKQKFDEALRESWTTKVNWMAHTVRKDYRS

Take `Cc1cc(C(C)Nc2ccccc2)c2nc(N3CCOCC3)cc(=O)n2c1` (stereo not drawn) [TGX-221]: in the test with U87MG cells, the TMZ sensitivity result was “increased TMZ sensitivity”. Further, the “activity of p110β” value at p110b (10 nM TGX-221, ELISA) is recorded as “didn't inactivate p110β”. The “activity of p110b” value on p110b (100 nM, ELISA, isolated protein subunit) is “not effective”. Also, in test [1] (8 μM TGX-221, 24 hours), the “AKT and RAC1/CDC42 activity” value is on record as “inactivated”; the “protein levels of MMP2” value is reported as “not”; the “protein levels of MMP9” value is on record as “decreased protein levels”. In addition, in test [1] (25 μM TGX-221, 96 hours), the “BIM-EL, BIM-L, BIM-S (apoptotic forms of BIM)” value is “remarkable increase”; the “cleaved caspase 3 (c-CASP3)” value is listed as “remarkable increase”; the “levels of pFOXO3T32” value is given as “significantly decreased”.
